Measurements from PubChem BioAssay (NCI).
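Following 48 hours of exposure in 96-well plates, responses at five concentrations were used to interpolate endpoints linearly. The concentration for full growth arrest is given as TGI.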

Legend:
Assay in all cases: NCI tumour cell line growth inhibition, 48 h
ACHN renal = system: ACHN renal
HL-60(TB) leukemia = system: HL-60(TB) leukemia
KM12 colon = system: KM12 colon
MCF7 breast = system: MCF7 breast
MDA-MB-231 breast = system: MDA-MB-231 breast
MDA-N = system: MDA-N
OVCAR-3 ovarian = system: OVCAR-3 ovarian
OVCAR-4 ovarian = system: OVCAR-4 ovarian
OVCAR-8 ovarian = system: OVCAR-8 ovarian
SK-MEL-28 melanoma = system: SK-MEL-28 melanoma
SNB-75 CNS = system: SNB-75 CNS
T-47D breast = system: T-47D breast

| SMILES | TGI (ACHN renal) | TGI (HL-60(TB) leukemia) | TGI (KM12 colon) | TGI (MCF7 breast) | TGI (MDA-MB-231 breast) | TGI (MDA-N) | TGI (OVCAR-3 ovarian) | TGI (OVCAR-4 ovarian) | TGI (OVCAR-8 ovarian) | TGI (SK-MEL-28 melanoma) | TGI (SNB-75 CNS) | TGI (T-47D breast) |
| --- | --- | --- | --- | --- | --- | --- | --- | --- | --- | --- | --- | --- |
| Nc1ccc(-c2nc3ccccc3s2)cc1Cl | > 100 µM | > 100 µM | > 100 µM | > 100 µM | > 100 µM | > 100 µM | > 100 µM | > 100 µM | > 100 µM | > 100 µM | > 93.5 µM | > 100 µM |
| Cc1cc(-n2nnc(C(=O)O)c2-c2ccccc2)c2ccc(Cl)cc2n1 | > 100 µM | > 100 µM | > 100 µM | > 100 µM | > 100 µM | > 100 µM | > 100 µM | > 100 µM | > 100 µM | > 100 µM | > 100 µM | > 100 µM |
| O=C(c1ccccc1)c1ccc2nc(-c3c(Cl)c(Cl)c(Cl)c(Cl)c3-c3nnc(-c4ccccc4)o3)[nH]c2c1 | > 100 µM | > 100 µM | > 100 µM | > 100 µM | > 100 µM | 15.5 µM | > 100 µM | > 100 µM | > 100 µM | > 100 µM | 84.4 µM | > 100 µM |
| Cc1cc(S(=O)(=O)Nc2nc3ncccc3[nH]2)c(S)cc1Cl | > 100 µM | > 100 µM | > 100 µM | > 100 µM | > 100 µM | > 100 µM | > 100 µM | > 100 µM | > 100 µM | > 100 µM | > 100 µM | > 100 µM |
| O=C1CCCNn2c(nc3ncccc3c2=O)N1 | > 100 µM | > 100 µM | > 100 µM | > 100 µM | > 100 µM | > 100 µM | > 100 µM | > 100 µM | > 100 µM | – | > 100 µM | > 100 µM |
| COC(=O)C1=C(OC(=O)/C(=C/c2ccccc2)c2ccc(OC)cc2)C(C(=O)OC)[C@@]2(O)[C@@H](C(=O)OC)[C@H](C)C[C@@H]1[C@@H]2C(=O)OC (stereo not given in full) | > 100 µM | > 100 µM | > 100 µM | > 100 µM | 90.8 µM | > 100 µM | > 100 µM | > 100 µM | > 100 µM | > 100 µM | > 100 µM | > 100 µM |
| FC(F)(F)c1cc(N(C2c3ccccc3C=Cc3ccccc32)P(Cl)Cl)cc(C(F)(F)F)c1 | 33.9 µM | 81.6 µM | 49.4 µM | 50 µM | 35 µM | 76.9 µM | 31.1 µM | 42.9 µM | 35.7 µM | 87.8 µM | 61.7 µM | 56.4 µM |
| CC(C)(C)OC(=O)[C@@H]1CCC(=O)N1C1(c2ccccc2)c2ccccc2-c2ccccc21 | > 100 µM | 61.8 µM | > 100 µM | > 100 µM | 86.1 µM | 96.8 µM | > 100 µM | > 100 µM | > 100 µM | 71.3 µM | > 100 µM | > 100 µM |
| CCCCc1ccc(Nc2ncc3ncn(COCCO)c3n2)cc1 | > 100 µM | 50 µM | 99.1 µM | > 100 µM | 57.4 µM | > 100 µM | 90.9 µM | > 100 µM | > 100 µM | – | 65.3 µM | > 100 µM |
| CCOC(=O)C1CC(C(=O)c2ccccc2)N2c3ccccc3-c3ccccc3C12 (stereo not given) | > 100 µM | 29.7 µM | > 100 µM | > 100 µM | > 100 µM | > 100 µM | > 100 µM | > 100 µM | > 100 µM | > 100 µM | > 100 µM | > 100 µM |
| Cc1nc2cc(F)c(F)cc2[nH]c1=O | > 100 µM | > 100 µM | > 100 µM | > 100 µM | > 100 µM | > 100 µM | > 100 µM | > 100 µM | > 100 µM | > 100 µM | > 100 µM | > 100 µM |
| CCOC(=O)/C(C(N)=O)=C(\O)C(=O)/C(Br)=C(\O)c1ccccc1 | 33.3 µM | 0.248 µM | 35.3 µM | 36.9 µM | 34.2 µM | 32.2 µM | 41.4 µM | 56.5 µM | 39.5 µM | 34.9 µM | 32.1 µM | 54.4 µM |
| COc1cc(/C=C2\CC/C(=C\c3cc(OC)c(O)c(OC)c3)C2=O)cc(OC)c1O | 6.58 µM | 8.62 µM | 4.52 µM | > 26.7 µM | 21.4 µM | > 23.4 µM | > 21.8 µM | 6.05 µM | > 26.1 µM | – | 8.06 µM | 8.02 µM |
| O=c1[nH]nc(-c2ccccc2)n1/N=C/c1ccc([N+](=O)[O-])o1 | 14.4 µM | > 44.4 µM | 23.2 µM | 7.21 µM | 19.5 µM | 12 µM | 15.5 µM | 16.7 µM | – | 10.3 µM | > 70.2 µM | > 96.4 µM |
| O[C@@H]1C=C[C@]23CCN(Cc4cc5c(cc42)OCO5)[C@@H]3C1 | > 100 µM | > 100 µM | > 100 µM | > 100 µM | > 100 µM | > 100 µM | > 100 µM | > 100 µM | > 100 µM | > 100 µM | > 100 µM | > 100 µM |
| Cn1cccc1-c1ccc(-c2ccc(CO)[se]2)[se]1 | > 100 µM | 18.9 µM | 50.5 µM | > 40 µM | > 79.8 µM | > 100 µM | > 100 µM | 53.8 µM | > 100 µM | > 100 µM | 59.5 µM | > 83.7 µM |
| C1=C(c2ccccc2)C(N2CCOCC2)Oc2ccccc21 (stereo not given) | > 100 µM | > 100 µM | > 100 µM | > 100 µM | > 100 µM | > 100 µM | > 100 µM | > 100 µM | > 100 µM | > 100 µM | > 100 µM | > 100 µM |
